For one experiment, the system named is panelists. Kind of experiment: Olfactory detection threshold of TMA, 3-alternative forced-choice, ISO 13301. The format is in vivo, human. The procedure: In addition, olfactory detection thresholds were assessed in aqueous solutions using a best estimate threshold approach as described in ISO 13301. In brief, samples containing different concentrations of analyte were presented in ascending order in a 3-alternative forced-choice design. Each concentration set consisted of three samples with one deviating sample containing a defined amount of trimethylamine. Samples were presented in amber vials (30 ml) coded with three digits and filled with 10 ml of solution, and panelists were required to designate the sample that differed from the others.
Thresholds of TMA were measured in buffered aqueous solution i) without additive ii) with 1% (m/m) Timberol® and iii) with 0.1% Mugetanol (isointense to 1% Timberol®). These experiments were performed separately on different days with the same panelists. In the case of testing in the presence of fragrance components (Timberol® or Mugetanol), all three samples of a given concentration set contained the same amount of fragrance components and differed only in the presence/absence of TMA. In each session, a total of 10 concentration sets ranging from […] to 1.00×10^−5% (m/m) TMA were evaluated. The concentration doubled in each step.
The aqueous solutions were buffered with TRIS (50 mM), and the pH was adjusted to 9 to have approximately 13% of the TMA in a deprotonated and thus volatile form. Furthermore, an odorless emulsifier was added to a final concentration of 3% (m/m) to dissolve Timberol®.
In a second step, the influence of Timberol® on the perception of TMA was investigated using a psychophysical approach. Therefore the detection thresholds of TMA alone and in the presence of suprathreshold concentrations of Timberol® were tested. Threshold measurements were performed in a 3-alternative forced-choice design according to ISO 13301. A total of 10 concentrations (binary dilution steps) ranging from […] to 1.00×10^−5% (m/m) TMA were examined.

In the next experiment the target is T1, hOR51E1 (Homo sapiens, UniProt Q8TCB6).
T1 sequence (Q8TCB6 1-318): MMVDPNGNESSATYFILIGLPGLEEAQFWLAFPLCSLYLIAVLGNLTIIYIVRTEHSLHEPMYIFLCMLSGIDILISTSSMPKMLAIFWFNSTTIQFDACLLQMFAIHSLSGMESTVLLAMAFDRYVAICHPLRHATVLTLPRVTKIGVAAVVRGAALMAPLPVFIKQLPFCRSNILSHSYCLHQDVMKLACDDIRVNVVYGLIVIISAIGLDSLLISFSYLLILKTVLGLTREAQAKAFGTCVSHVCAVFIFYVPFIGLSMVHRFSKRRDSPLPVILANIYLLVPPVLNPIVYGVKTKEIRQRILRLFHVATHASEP
In words: Cre-luciferase assay, hOR51E1-mediated responses to nonanoic acid. As to conditions: Timberol 30 μM; agonist below and above EC50. Format: cell-based. More on the design: expressed in transfected cells; host or cells: HANA3A cells. The procedure:
In order to identify suitable antagonist for TMA the protocol of Zhuang and Matsunami for measuring receptor activity with the Dual-Glo Luciferase Assay System (Promega) was adapted [see Nat. Protoc. 3(9), p. 1402-1413 (2008)]. HANA3A cells were maintained under standard conditions in DMEM supplemented with 10% FBS and 100 units/ml penicillin and streptomycin at 37° C. Cells (approximately 15,000 cells/well) were plated on poly-D-lysine-coated 96-well plates (NUNC) and transfected after 24 h with the FuGENE® HD (Promega) transfection reagent according to the manufacturer's protocol. In a 96-well plate, we placed 18 μl transfection reagent, 1-5 μg receptor plasmid, 2 μg pGL4-luciferase reporter, 1 μg pRL-TK-Renilla reporter, 0.5 μg G-protein αolf, 1 μg receptor transport protein (RTP1S) and 1 μg M3 muscarinic acetylcholine receptor (for hOR51E1) to ensure cell surface expression. […] Expression rates of Cre-luciferase were monitored by luminescent enzymatic reactivity. Thus, luminescence signals correlate with receptor activation. […]
Another experiment was directed to figure out whether the Timberol® block is exclusively mediated by hTAAR5. […] Then the impact of Timberol® on MOR42-3- and hOR51E1-mediated responses to the respective agonists was tested with concentrations below and above the calculated EC50 values. […]

“Also recorded” adds a separate entry of the source.

Regarding `CCCC(O)CCC1C(C)CCCC1(C)C` (stereo not drawn) [Timberol®, Norlimbanol], the “influence of additive on TMA detection threshold / perception” value in the experiment on panelists (1% Timberol or 0.1% Mugetanol (isointense)) was “abolished the ability to perceive TMA around perithreshold concentrations; also recorded: shifted to a significantly higher concentration”. For the same compound, in the experiment with panelists (of the 27 tested subjects), the “subjects less sensitive to TMA in the presence of Timberol” value came to 23. Besides, the “blocking effect on hOR51E1-mediated responses to nonanoic acid” value on hOR51E1 is “no any significant impact; also recorded: No significant blocking effects”.

Values taken from patent US10639251B2, “Method for inhibiting or masking fishy odours” (Symrise AG, priority 2015, dated 2020).
